Results published in patent US20240180485A1, “METHOD AND DEVICE FOR INDUCING HYPOMETABOLIC STATE IN SUBJECT WITH DISEASE” (UNIVERSITY OF TSUKUBA, priority 2021, published 2024).

Experiments:
wild-type mice = assay: Metabolic state induced by IP CHA in wild-type mice
Method: The adenosinea receptor agonist CHA (N6-cyclohexyladenosine, Sigma-Aldrich, C9901) was dissolved in physiological saline at a concentration of 250 μg/mL, and the resulting solution was intraperitoneally administered to each mouse at a dose of 2.5 mg/kg.
In addition, the metabolic state induced by systemic delivery of the adenosine A1AR agonist (6)N-cyclohexyladenosine (CHA), which is used to induce a hypothermic state, was also investigated^19.

[1] = test system: Qrfp-iCre; Rosa26^dreaddm3 mice; assay: Thermographic surface body temperature and motor activity after CNO in Qrfp-iCre; Rosa26^dreaddm3 mice; format: in vivo, mouse
Description: For thermographic analysis, the mice were placed in an experimental cage (25×15×10 cm) and monitored by using an infrared thermal imaging camera (InfReC R500 EX; NIPPON AVIONICS) placed 30 cm above the cage floor. In order to clearly detect the surface temperature, the dorsal hair was removed by using hair clippers one day before the start of the experiment. Thermograms of DREADD and optogenetic experiments were collected at 0.5 Hz and 1 Hz, respectively, and analyzed by using the InfReC Analyzer NS9500 Professional software (NIPPON AVIONICS). The highest temperature in one frame was used as TS of the animal (FIG. 1d).
The pyroglutamylated RFamide peptide (QRFP), a hypothalamic neuropeptide, was originally discovered through a bioinformatics approach aimed at the discovery of a new RFamide peptide^9,10. The Qrfp peptide was also identified and purified from the rat brain as an endogenous ligand for the orphan G-protein-coupled receptor hGPR103^11. The prepro-Qrfp mRNA is localized only in the hypothalamus and is distributed in the periventricular nucleus (Pe), the lateral hypothalamus (LHA), and the tuber cinereum (TC) 11. Orfp has previously been implicated in food intake, sympathetic regulation, and anxiety^11,12. The inventors prepared mice (Qrfp-iCre mice) having codon-improved Cre recombinase (iCre) knocked-in into the Qrfp gene. In order to obtain mice (Qrfp-iCre; Rosa26^dreaddm3 mice) in which hM3Dq-mCherry was expressed only in iCre-expressing neurons, the inventors crossbred […] with Rosa26^dreadm3 mice having an upstream floxed transcription arrest element inserted at the Rosa26 gene locus. […] The decrease in Ts started about 5 minutes after CNO administration and lasted for approximately 12 hours. After that, the mice spontaneously recovered from the hypothermic state without external rewarming.

[2] = test system: hM3Dq-mCherry-expressing neurons; assay: Current-clamp recording of hypothalamus slices with bath-applied CNO; format: cell-based, mouse; details: bath application; CNO 1 μM; 30° C.
Method: The mice were decapitated under deep anesthesia using isoflurane (Pfizer). The brains were extracted and cooled in an ice-cold cutting solution containing the following (mM): 125 mM choline chloride, 25 mM NaHCO3, 10 mM D(+)-glucose, 7 mM MgCl2, 2.5 mM KCl, 1.25 mM NaH2PO4, and 0.5 mM CaCl2 bubbled with O2 (95%) and CO2 (5%). Horizontal brain slices (250 μm in thickness) including the hypothalamus were prepared by using a vibratome (VT1200S, Leica) and were maintained at room temperature for 1 hour in artificial CSF (ACSF) containing the following (mM): 125 mM NaCl, 26 mM NaHCO3, 10 mM D(+)-glucose, 2.5 mM KCl, 2 mM CaCl2), and 1 mM MgSO4 bubbled with O2 (95%) and CO2 (5%). The electrodes (5 to 8 MΩ) were filled with an internal solution containing the following (mM): 125 mM K-gluconate, 10 mM HEPES, 10 mM phosphocreatine, 0.05 mM tolbutamide, 4 mM NaCl, 4 mM ATP, 2 mM MgCl2, 0.4 mM GTP, and 0.2 mM EGTA, pH 7.3, adjusted with KOH). Firing of hM3Dq-mCherry-expressing neurons was recorded in current-clamp mode at a temperature of 30° C. CNO (1 μM) was bath-applied, and the effect was investigated. The membrane potential and data acquisition were controlled by using a combination of a MultiClamp 700B amplifier, a Digidata 1440A A/D converter, and Clampex 10.3 software (Molecular Devices). […]

Q-hM3D mice [3] = assay: Body temperature, oxygen consumption, heart rate and respiration after CNO IP in Q-hM3D mice; format: in vivo, mouse
[4] = test system: neurons in AVPe, MPA, and Pe; assay: Fos immunostaining after CNO IP in Q-hM3D mice; format: in vivo, mouse; details: 90 minutes after CNO IP
Method: Each mouse was deeply anesthetized with isoflurane, transcardially perfused with 10% sucrose in water, and subsequently perfused with ice-cooled 4% paraformaldehyde (4% PFA) in a 0.1 M phosphate buffer having a pH of 7.4, and the brain was removed. The brain was left in 4% PFA overnight at 4° ° C., then fixed, incubated overnight at 4° C. in 30% sucrose in a 0.1 M phosphate buffered saline (PBS) having a pH of 7.4, immersed in a Tissuue-Tek O.C.T. compound (Sakura) in a cryomold, and frozen at −80° C. until sectioned. The brain was sliced coronally by using a cryostat (CM1860, Leica) every 50 μm into four equal series, collected in a 6-well plate filled with ice-cooled PBS, and washed three times with PBS at room temperature (RT). Unless otherwise specified, the following incubation step was carried out with gently shaking on an orbital shaker. Brain sections were incubated for 1 hour at room temperature in 1% Triton X-100 in PBS. […]
The primary antibodies used in the present study were rabbit anti-cFos (1:4000, ABE457, Millipore), goat anti-mCherry (1:15000, AB0040-200, SICGEN), rat anti-GFP (1:5000, 04404-84, NACALAI TESQUE), mouse anti-TH (1:1000, sc-25269, Santa Cruz Biotechnology), mouse anti-orexin A (1:200, sc-80263, Santa Cruz Biotechnology), and rabbit anti-MCH (1:2000, M8440, SIGMA). […] Brain regions were determined by using mouse brain maps from Paxinos and Franklin^36.

Q-hM3D mice [5] = details: mouse, in vivo
Description: In order to evaluate the thermoregulatory system under QIH and normal conditions, the heat loss and the heat production of the animals were described by a hierarchical multilayer model (FIGS. 3c to 3k, code folder QIH_GTRH). Three parameters of G, TR, and H under two metabolic conditions, that is, normal and QIH, were estimated from a metabolically stable state of the animals at various TAs. […] In brief, a linear model consisting of the controllable parameter TA and the observable parameters TB and VO2 was fitted to the experimental results for both TB and VO2 by using TA as a predictor having normally distributed noise. Next, G, TR, and H were estimated by using the posterior distributions of the slope and the intercept coefficient of each model. In this analysis, the prior probability density function of the standard deviation of noise was a standard half-normal distribution, and the other parameters used a positive region of a uniform distribution except for the intercept coefficient of TB, which used a uniform distribution due to negative values.
In order to evaluate this, feature analysis of the thermoregulatory system of mice during QIH was carried out. […] Q-hM3D mice were prepared, and TB and VO2 were recorded during QIH at various TAs (8, 12, 16, 20, 24, 28, and 32° C.) (FIG. 3a). […]

[6] = test system: AVPe/MPA including Q-neurons; details: AAV10-CaMKIIα-hM3Dq-mCherry injected into AVPe/MPA; cited from earlier work
[7] = centrally administered; cited from earlier work
[8] = surface body temperature, thermographic camera

OC[C@H]1O[C@@H](n2cnc3c(NC4CCCCC4)ncnc32)[C@H](O)[C@@H]1O [CHA, N6-cyclohexyladenosine]
TB and VO2 when TA was set to 12° C. (wild-type mice; IP 2.5 mg/kg, CHA-induced hypothermia): further decreased | reaction to low TA (increase in VO2, posture, shivering) (wild-type mice; IP 2.5 mg/kg, TA 12° C.): did not react to a low TA | induction of hypothermic/hypometabolic state (wild-type mice; IP injection 2.5 mg/kg): effectively induced a hypothermic/hypometabolic state

C[N+]1([O-])CCN(C2=Nc3cc(Cl)ccc3Nc3ccccc32)CC1 [CNO, clozapine N-oxide]
hypothermia accompanying the CNO-induced immobile state ([1]; FIG. 1b): remarkable and sustained hypothermia | start of severe and sustained immobile state after injection ([1]; intraperitoneal (IP) injection): about 30 minutes | duration of decrease in Ts [1, 8]: approximately 12 hours | start of decrease in Ts after administration [1, 8]: about 5 minutes | excitation of mCherry-positive neurons [2]: strongly excited | induction of QIH (Q-hM3D mice [3]; CNO injection, before in situ hybridization): effectively induced QIH | QIH after repeated injections in the same mice (Q-hM3D mice [3]; FIG. 1h): reproducible | duration of very low TB state (below 30° C.) (Q-hM3D mice [3]; IP injection, FIG. 1d): ≥ 48 h | duration of QIH with a TB of less than 30° C. (Q-hM3D mice [3]; TA=20° C., one dose 1 mg/kg): ≥ 48 h | time for VO2 to fully return to normal (Q-hM3D mice [3]; TA=20° C., one dose 1 mg/kg): about 1 week | hypothermia compared with Qrfp-iCre; Rosa26^dreaddm3 mice (Q-hM3D mice [3]; mouse, in vivo, ip): deeper, longer-lasting hypothermia | O2 consumption rate (VO2) in the CNO-induced hypothermic state (Q-hM3D mice [3]; respiratory gas analysis, FIG. 1g): remarkable decrease | action of CNO on TB with TeTxLC co-expression (Q-hM3D mice [3]; simultaneous injection of AAV2/9-hSyn-DIO-TeTxLC-eYFP and AAV10-EF1α-DIO-hM3Dq-mCherry): completely eliminated | VO2 (Q-hM3D mice [3]; two hours after CNO injection, 3.60 before): 1.17 mL/g/h | respiratory rate (Q-hM3D mice [3]; two hours after CNO injection, 333 before, tidal volume below detection limit): undetectable | heart rate (Q-hM3D mice [3]; two hours after CNO injection, 758 two hours before, average of n=3): 215 beats/min | in vivo excitation of neurons (anti-Fos and anti-mCherry) [4]: numerous mCherry and Fos double-positive neurons | difference between the medians of TR, normal vs QIH (Q-hM3D mice [5]): 8.41 °C | reduction in the median of H in QIH from the normal state (Q-hM3D mice [5]): 95.3% | induction of QIH in rats [6]: induced QIH with hypothermia and hypometabolism

pyroglutamylated RFamide peptide (QDEGSEATGFLPAAGEKTSGPLGNLAEELNGYSRKKGGFSFRF; QRF-amide; UniProt P83859 91-133, looked up) [Qrfp, hypothalamic neuropeptide, endogenous ligand for the GPR103 receptor]
effect on sympathetic nerve outflow, heart rate and blood pressure [7]: increases sympathetic nerve outflow and increases the heart rate and the blood pressure
